Test results reported in patent publication US20030113379A1, “Biodegradable composite matrix for enhancing angiogenesis and method for producing the same” (INDUSTRIAL TECHNOLOGY RESEARCH INSTITUTE, priority 2001, published 2003).
“Also recorded” adds a separate entry of the source.

Test system: mouse
Test: Angiogenesis in mice after subcutaneous injection of hydrogel composite matrix (HE-stained tissue sections)
Assay type: in vivo
Details: mice sacrificed 15 days after subcutaneous injection of the hydrogel; rank order against PBS control
Protocol: S-1-P was dissolved in methanol and the solution was poured into a round bottom flask. S-1-P was then dried and spread onto the inner wall of the flask by decompression distillation. PBS was added into the flask followed by rapid freezing using liquid nitrogen. The mixture was then sonicated under room temperature to melt the S-1-P from the inner wall and form micelles. The resulting S-1-P micelles were mixed with chitin hydrogel and bFGF to give a composite matrix. The composite matrix was introduced into the mouse via subcutaneous injection.
The mice were sacrificed 15 days after injecting the hydrogel. The implanted tissues were obtained, fixed, embedded, sectioned, stained, and observed under a 200 times microscope. The sizes and conditions of the blood vessels of the sections were observed. […] The arrows indicate the blood vessels. FIG. 2 is the average numbers of blood vessels of the tissue sections. It is shown that blood vessel number of the sections is bFGF/S-1-P>bFGF>PBS, which is in consistent with results shown in FIG. 1.

Substance: bFGF: protein growth factor (fibroblast growth factor) used alone as the comparison sample
- average numbers of blood vessels of the tissue sections (FIG. 2): larger than the PBS sample; also recorded: bFGF>PBS
